Experimental data as given in publication PMC6120666 (The EMBO Journal, 2018).

Assays:
Assay in all cases: Drug affinity chromatography with c-ponatinib and LC-MS/MS (ponatinib interactome)
Format in all cases: binding
[1] = target: T1, proteins of U2OS cell lysate (Homo sapiens, UniProt P29317); conditions: EPHA2, Ephrin type-A receptor 2
T1 construct: Proteins enriched by c-ponatinib from U2OS cell lysate; endogenous in cells; host or cells: U2OS cell lysate
In short: (§1)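 Proteins were identified by nano-UPLC–MS/MS after elution with formic acid and trypsin digestion. They were captured from U2OS lysate (2 mg protein per pulldown, NP-40 buffer) on amine-coupled NHS beads during a 2 h incubation at 4 °C.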

[2] = target: T2, proteins of U2OS cell lysate (Homo sapiens, UniProt P78371); conditions: CCT2, T-complex protein 1 subunit beta
T2 construct: Proteins enriched by c-ponatinib from U2OS cell lysate; endogenous in cells; host or cells: U2OS cell lysate
In short: as §1

[3] = target: T3, proteins of U2OS cell lysate (Homo sapiens, UniProt Q14203); conditions: DCTN1, Dynactin subunit 1
T3 construct: Proteins enriched by c-ponatinib from U2OS cell lysate; endogenous in cells; host or cells: U2OS cell lysate
In short: as §1

[4] = target: T4, proteins of U2OS cell lysate (Homo sapiens, UniProt P14314); conditions: PRKCSH, Glucosidase 2 subunit beta
T4 construct: Proteins enriched by c-ponatinib from U2OS cell lysate; endogenous in cells; host or cells: U2OS cell lysate
In short: as §1

[5] = target: T5, proteins of U2OS cell lysate (Homo sapiens, UniProt P50991); conditions: CCT4, T-complex protein 1 subunit delta
T5 construct: Proteins enriched by c-ponatinib from U2OS cell lysate; endogenous in cells; host or cells: U2OS cell lysate
In short: as §1

[6] = target: T6, proteins of U2OS cell lysate (Homo sapiens, UniProt O00487); conditions: PSMD14, 26S proteasome non-ATPase regulatory subunit 14
T6 construct: Proteins enriched by c-ponatinib from U2OS cell lysate; endogenous in cells; host or cells: U2OS cell lysate
In short: as §1

[7] = target: T7, proteins of U2OS cell lysate (Homo sapiens, UniProt P36542); conditions: ATP5C1, ATP synthase subunit gamma, mitochondrial
T7 construct: Proteins enriched by c-ponatinib from U2OS cell lysate; endogenous in cells; host or cells: U2OS cell lysate
In short: as §1

[8] = target: T8, proteins of U2OS cell lysate (Homo sapiens, UniProt P61026); conditions: RAB10, Ras-related protein Rab-10
T8 construct: Proteins enriched by c-ponatinib from U2OS cell lysate; endogenous in cells; host or cells: U2OS cell lysate
In short: as §1

[9] = target: T9, proteins of U2OS cell lysate (Homo sapiens, UniProt Q7L014); conditions: DDX46, Probable ATP-dependent RNA helicase DDX46
T9 construct: Proteins enriched by c-ponatinib from U2OS cell lysate; endogenous in cells; host or cells: U2OS cell lysate
In short: as §1

[10] = target: T10, proteins of U2OS cell lysate (Homo sapiens, UniProt P00403); conditions: MT-CO2, Cytochrome c oxidase subunit 2
T10 construct: Proteins enriched by c-ponatinib from U2OS cell lysate; endogenous in cells; host or cells: U2OS cell lysate
In short: as §1

[11] = target: T11, proteins of U2OS cell lysate (Homo sapiens, UniProt P38646); conditions: HSPA9, Stress-70 protein, mitochondrial
T11 construct: Proteins enriched by c-ponatinib from U2OS cell lysate; endogenous in cells; host or cells: U2OS cell lysate
In short: as §1

[12] = target: T12, proteins of U2OS cell lysate (Homo sapiens, UniProt P60174); conditions: TPI1, Triosephosphate isomerase
T12 construct: Proteins enriched by c-ponatinib from U2OS cell lysate; endogenous in cells; host or cells: U2OS cell lysate
In short: as §1

[13] = target: T13, proteins of U2OS cell lysate (Homo sapiens, UniProt Q9Y6G9); conditions: DYNC1LI1, Cytoplasmic dynein 1 light intermediate chain 1
T13 construct: Proteins enriched by c-ponatinib from U2OS cell lysate; endogenous in cells; host or cells: U2OS cell lysate
In short: as §1

[14] = target: T14, proteins of U2OS cell lysate (Homo sapiens, UniProt P21333); conditions: FLNA, Filamin-A
T14 construct: Proteins enriched by c-ponatinib from U2OS cell lysate; endogenous in cells; host or cells: U2OS cell lysate
In short: as §1

[15] = target: T15, proteins of U2OS cell lysate (Homo sapiens, UniProt O95292); conditions: VAPB, Vesicle-associated membrane protein-associated protein B/C
T15 construct: Proteins enriched by c-ponatinib from U2OS cell lysate; endogenous in cells; host or cells: U2OS cell lysate
In short: as §1

[16] = target: T16, proteins of U2OS cell lysate (Homo sapiens, UniProt P12931); conditions: SRC, Proto-oncogene tyrosine-protein kinase Src
T16 construct: Proteins enriched by c-ponatinib from U2OS cell lysate; endogenous in cells; host or cells: U2OS cell lysate
In short: as §1

[17] = target: T17, proteins of U2OS cell lysate (Homo sapiens, UniProt P04792); conditions: HSPB1, Heat shock protein beta-1
T17 construct: Proteins enriched by c-ponatinib from U2OS cell lysate; endogenous in cells; host or cells: U2OS cell lysate
In short: as §1

[18] = target: T18, proteins of U2OS cell lysate (Homo sapiens, UniProt P62266); conditions: captured protein RPS23, Rank 181
T18 construct: Proteins enriched by c-ponatinib from U2OS cell lysate; endogenous in cells; host or cells: U2OS cell lysate
In short: as §1

[19] = target: T19, proteins of U2OS cell lysate (Homo sapiens, UniProt P25787); conditions: captured protein PSMA2, Rank 214
T19 construct: Proteins enriched by c-ponatinib from U2OS cell lysate; endogenous in cells; host or cells: U2OS cell lysate
In short: as §1

T7 sequence (P36542 26-298): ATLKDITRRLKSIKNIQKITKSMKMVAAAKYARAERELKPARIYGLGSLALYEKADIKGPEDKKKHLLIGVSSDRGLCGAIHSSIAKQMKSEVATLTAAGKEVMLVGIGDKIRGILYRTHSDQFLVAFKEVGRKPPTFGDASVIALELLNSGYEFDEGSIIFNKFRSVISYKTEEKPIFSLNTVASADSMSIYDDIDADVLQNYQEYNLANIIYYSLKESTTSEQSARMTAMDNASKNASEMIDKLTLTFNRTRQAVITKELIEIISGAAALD
T19 sequence (P25787 whole entry): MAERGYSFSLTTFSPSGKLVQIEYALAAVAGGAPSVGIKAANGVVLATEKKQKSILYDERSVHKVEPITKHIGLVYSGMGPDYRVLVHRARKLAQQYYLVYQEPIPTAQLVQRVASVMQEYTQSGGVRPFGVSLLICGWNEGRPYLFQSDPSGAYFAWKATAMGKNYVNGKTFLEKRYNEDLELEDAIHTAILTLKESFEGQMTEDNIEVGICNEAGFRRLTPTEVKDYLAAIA
T9 sequence (Q7L014 whole entry): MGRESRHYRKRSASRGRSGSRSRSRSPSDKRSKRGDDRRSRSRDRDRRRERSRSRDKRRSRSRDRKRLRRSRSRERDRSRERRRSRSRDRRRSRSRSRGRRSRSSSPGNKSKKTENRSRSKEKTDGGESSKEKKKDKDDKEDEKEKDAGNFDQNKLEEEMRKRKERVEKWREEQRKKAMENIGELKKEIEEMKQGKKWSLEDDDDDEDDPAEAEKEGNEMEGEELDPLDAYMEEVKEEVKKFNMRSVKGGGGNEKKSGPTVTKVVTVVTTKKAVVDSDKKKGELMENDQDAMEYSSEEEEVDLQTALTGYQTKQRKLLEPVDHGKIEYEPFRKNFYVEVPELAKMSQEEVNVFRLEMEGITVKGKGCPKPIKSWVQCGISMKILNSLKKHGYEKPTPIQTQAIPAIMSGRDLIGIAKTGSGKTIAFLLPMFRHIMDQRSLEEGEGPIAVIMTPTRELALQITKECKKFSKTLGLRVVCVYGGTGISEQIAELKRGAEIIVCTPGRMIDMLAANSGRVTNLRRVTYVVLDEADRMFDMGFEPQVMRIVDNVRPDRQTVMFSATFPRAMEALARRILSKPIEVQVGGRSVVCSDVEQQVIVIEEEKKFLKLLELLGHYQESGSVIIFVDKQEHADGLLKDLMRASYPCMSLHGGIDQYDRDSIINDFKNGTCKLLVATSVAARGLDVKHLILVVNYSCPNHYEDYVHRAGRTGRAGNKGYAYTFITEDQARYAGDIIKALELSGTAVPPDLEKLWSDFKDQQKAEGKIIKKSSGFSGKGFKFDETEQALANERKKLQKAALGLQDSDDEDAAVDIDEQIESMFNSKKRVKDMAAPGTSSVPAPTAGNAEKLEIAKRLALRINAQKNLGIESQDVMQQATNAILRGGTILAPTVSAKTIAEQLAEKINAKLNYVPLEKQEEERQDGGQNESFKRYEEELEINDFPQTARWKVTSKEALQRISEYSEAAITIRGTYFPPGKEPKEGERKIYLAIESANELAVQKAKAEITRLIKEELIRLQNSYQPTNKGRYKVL
T4 sequence (P14314 15-528): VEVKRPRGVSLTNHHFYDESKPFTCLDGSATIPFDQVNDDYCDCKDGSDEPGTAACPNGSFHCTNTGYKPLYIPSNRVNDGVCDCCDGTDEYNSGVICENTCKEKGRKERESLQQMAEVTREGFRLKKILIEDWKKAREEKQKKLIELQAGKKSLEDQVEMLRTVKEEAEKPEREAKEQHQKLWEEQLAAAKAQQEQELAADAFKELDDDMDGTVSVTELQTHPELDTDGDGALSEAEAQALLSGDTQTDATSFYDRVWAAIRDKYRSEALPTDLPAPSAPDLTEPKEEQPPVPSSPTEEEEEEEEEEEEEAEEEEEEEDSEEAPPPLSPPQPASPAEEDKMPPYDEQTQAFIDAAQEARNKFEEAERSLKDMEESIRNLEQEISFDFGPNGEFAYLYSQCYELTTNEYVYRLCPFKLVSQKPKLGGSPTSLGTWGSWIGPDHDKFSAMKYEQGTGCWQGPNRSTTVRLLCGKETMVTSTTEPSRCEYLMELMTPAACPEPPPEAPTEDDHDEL
T12 sequence (P60174 whole entry): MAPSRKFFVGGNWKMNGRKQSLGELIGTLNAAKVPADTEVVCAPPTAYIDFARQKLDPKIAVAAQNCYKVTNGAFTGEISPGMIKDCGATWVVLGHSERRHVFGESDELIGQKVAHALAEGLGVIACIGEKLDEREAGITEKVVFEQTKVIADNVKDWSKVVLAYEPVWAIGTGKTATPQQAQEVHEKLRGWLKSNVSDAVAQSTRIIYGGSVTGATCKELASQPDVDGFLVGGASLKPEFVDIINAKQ
T15 sequence (O95292 whole entry): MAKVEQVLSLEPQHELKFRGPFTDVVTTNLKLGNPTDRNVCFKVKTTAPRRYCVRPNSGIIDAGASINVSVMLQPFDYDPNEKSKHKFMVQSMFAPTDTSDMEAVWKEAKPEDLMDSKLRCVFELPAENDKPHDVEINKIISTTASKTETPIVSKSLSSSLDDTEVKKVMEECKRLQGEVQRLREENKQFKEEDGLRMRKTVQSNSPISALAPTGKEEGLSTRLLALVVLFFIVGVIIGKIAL
T5 sequence (P50991 whole entry): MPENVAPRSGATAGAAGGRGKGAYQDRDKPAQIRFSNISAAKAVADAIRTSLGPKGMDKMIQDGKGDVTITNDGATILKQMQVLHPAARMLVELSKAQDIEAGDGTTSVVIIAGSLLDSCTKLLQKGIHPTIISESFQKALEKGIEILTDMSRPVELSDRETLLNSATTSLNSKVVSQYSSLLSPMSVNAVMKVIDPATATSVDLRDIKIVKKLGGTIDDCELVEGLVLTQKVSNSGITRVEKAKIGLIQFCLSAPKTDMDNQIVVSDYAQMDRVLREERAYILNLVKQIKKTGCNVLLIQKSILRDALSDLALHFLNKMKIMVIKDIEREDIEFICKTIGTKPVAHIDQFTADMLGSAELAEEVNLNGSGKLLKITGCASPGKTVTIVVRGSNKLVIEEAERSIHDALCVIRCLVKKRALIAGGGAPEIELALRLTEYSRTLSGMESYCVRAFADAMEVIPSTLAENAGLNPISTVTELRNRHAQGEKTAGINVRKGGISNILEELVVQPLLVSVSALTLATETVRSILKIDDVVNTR
T2 sequence (P78371 whole entry): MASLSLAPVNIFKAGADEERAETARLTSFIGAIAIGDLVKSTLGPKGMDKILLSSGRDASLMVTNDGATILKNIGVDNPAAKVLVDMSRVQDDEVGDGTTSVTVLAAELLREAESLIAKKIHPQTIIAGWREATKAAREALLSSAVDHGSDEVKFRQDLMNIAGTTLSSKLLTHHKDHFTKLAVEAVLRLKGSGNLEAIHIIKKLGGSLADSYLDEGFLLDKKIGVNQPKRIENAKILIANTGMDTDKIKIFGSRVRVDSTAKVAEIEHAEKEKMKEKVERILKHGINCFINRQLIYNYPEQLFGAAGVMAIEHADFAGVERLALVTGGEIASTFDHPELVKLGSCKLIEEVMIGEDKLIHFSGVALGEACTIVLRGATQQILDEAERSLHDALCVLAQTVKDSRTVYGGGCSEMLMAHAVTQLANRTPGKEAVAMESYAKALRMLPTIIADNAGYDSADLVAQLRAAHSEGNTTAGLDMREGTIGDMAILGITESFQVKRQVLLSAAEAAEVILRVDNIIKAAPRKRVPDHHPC
T6 sequence (O00487 whole entry): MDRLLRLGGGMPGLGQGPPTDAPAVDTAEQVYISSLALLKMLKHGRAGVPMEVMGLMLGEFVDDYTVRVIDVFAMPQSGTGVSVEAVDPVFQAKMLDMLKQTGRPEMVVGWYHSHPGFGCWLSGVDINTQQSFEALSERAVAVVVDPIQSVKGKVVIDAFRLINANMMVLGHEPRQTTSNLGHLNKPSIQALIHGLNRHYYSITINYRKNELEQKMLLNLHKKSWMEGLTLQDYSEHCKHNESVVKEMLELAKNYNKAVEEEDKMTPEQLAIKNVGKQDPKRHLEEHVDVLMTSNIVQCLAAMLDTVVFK
T13 sequence (Q9Y6G9 whole entry): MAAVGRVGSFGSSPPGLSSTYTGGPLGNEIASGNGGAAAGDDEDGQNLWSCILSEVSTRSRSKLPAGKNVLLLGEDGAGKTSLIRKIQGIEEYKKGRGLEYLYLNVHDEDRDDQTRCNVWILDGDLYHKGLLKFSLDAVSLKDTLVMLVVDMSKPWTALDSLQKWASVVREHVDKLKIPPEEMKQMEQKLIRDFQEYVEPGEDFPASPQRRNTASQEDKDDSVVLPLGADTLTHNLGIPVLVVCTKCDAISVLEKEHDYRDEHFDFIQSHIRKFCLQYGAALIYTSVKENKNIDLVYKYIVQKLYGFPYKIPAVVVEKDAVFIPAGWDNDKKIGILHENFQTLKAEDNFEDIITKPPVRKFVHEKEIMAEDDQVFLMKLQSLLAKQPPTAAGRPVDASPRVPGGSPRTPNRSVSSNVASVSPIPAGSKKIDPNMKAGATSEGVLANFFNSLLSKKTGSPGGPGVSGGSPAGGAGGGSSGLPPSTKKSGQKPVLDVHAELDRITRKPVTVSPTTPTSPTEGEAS
T8 sequence (P61026 whole entry): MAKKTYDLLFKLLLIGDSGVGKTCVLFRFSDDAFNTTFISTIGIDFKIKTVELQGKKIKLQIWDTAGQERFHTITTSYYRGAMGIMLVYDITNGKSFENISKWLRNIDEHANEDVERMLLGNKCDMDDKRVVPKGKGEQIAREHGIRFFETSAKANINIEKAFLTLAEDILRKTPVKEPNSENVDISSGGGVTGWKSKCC
T10 sequence (P00403 whole entry): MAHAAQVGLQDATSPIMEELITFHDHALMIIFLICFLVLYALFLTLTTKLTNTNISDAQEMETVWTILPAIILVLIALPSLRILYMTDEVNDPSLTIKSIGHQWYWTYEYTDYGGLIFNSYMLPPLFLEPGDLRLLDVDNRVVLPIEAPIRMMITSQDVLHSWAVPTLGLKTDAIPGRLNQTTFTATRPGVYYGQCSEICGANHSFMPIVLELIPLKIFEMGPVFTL

Row | Compound | Average LFQ PON_WT [1] | Average LFQ PON_WT [2] | Average LFQ PON_WT [3] | Average LFQ PON_WT [4] | Average LFQ PON_WT [5] | Average LFQ PON_WT [6] | Average LFQ PON_WT [7] | Average LFQ PON_WT [8] | Average LFQ PON_WT [9] | Average LFQ PON_WT [10] | Average LFQ PON_WT [11] | Average LFQ PON_WT [12] | Average LFQ PON_WT [13] | Average LFQ PON_WT [14] | Average LFQ PON_WT [15] | Average LFQ PON_WT [16] | Average LFQ PON_WT [17] | Average LFQ intensity [18] | Average LFQ intensity [19]
1 | Cc1ccc(C(=O)Nc2ccc(CN3CCN(C)CC3)c(C(F)(F)F)c2)cc1C#Cc1cnc2cccnn12 [PON] | 29.5288 | 24.048 | 21.0359 | 21.2991 | 23.8741 | 20.7842 | 21.058 | 19.7729 | 21.404 | 20.775 | 24.6608 | 20.2344 | 23.2986 | 25.7064 | 20.7048 | 24.0256 | 25.081 |  | 
2 | Cc1ccc(C(=O)Nc2ccc(CN3CCN(CCCN)CC3)c(C(F)(F)F)c2)cc1C#Cc1cnc2cccnn12 [c-ponatinib, reference compound] |  |  |  |  |  |  |  |  |  |  |  |  |  |  |  |  |  | 22.1736 | 21.6987
